Reference: patent US20060173015A1, “Cyclohexyldiamines as selective alpha 1a/1d adrenoreceptor antagonists for the treatment of benign prostatic hypertrophy and lower urinary tract symptoms” (priority 2004, published 2006)

System: Mean Arterial Pressure (MAP)
Test: Phenylephrine-induced MAP in an anesthetized canine model
Format: in vivo
Conditions: anesthetized dog
Procedure: In-Vivo Evaluation of α1-Adrenergic Antagonists on Prostatic Intraurethral Pressure (IUP) and Mean Arterial Pressure (MAP) in an Anesthetized Canine Model
An anesthetized dog was fitted with a balloon catheter for the measurement of changes in prostatic IUP and with a non-invasive blood pressure (NIBP) cuff for determination of MAP.
The pressor effects of challenge doses (i.v.) of the α-adrenergic agonist phenylephrine upon IUP and MAP were measured before and at various time points after a single dose (i.v.) of an α-adrenergic antagonist test compound (Compound 69) of the present invention.
Each treatment group was dosed with a test compound (0.01, 0.03, 0.1 and 0.5 mg/kg) in four separate experiments. The first challenge dose of phenylephrine was administered 30 mins prior to the test compound dose and at 30 min intervals thereafter for a total time period of 5 hrs (i.e at time minus 30 mins, time plus 30 mins, 1 hr, 1.5 hrs, 2 hrs, 2.5 hrs, 3 hrs, 3.5 hrs, 4 hrs, 4.5 hrs and 5 hrs).
The animals were fasted overnight, anesthetized with propofol (4 mg/kg IV or to effect), then intubated and anesthesia maintained using inhalation isoflurane (1-2% in oxygen at a flow rate of 2 l/min) with animals breathing spontaneously.
Blood pressure was measured non-invasively using a Critikon 8100 monitor. An infant blood pressure cuff was placed on a forelimb. Measurements were made automatically at 1-minute intervals during recording periods. […] Care was taken to accurately correlate the time of the MAP readings with the time of the phenylephrine dose. Recording periods typically lasted from 5 minutes before phenylephrine administration to 10 minutes after. The monitor was turned off between recording periods to allow the arterial blood vessels of the forelimb to recover from repeated cuff inflations.
Because of the variability of the MAP value, several values recorded during a five minute “control” period prior to the phenylephrine challenge dose were averaged to establish a mean baseline value for measuring the phenylephrine-induced change in MAP.
MAP readings also varied during the response to the phenylephrine challenge. A visual peak MAP value, seen on the monitor at about 3 minutes after the challenge dose, was recorded and used to calculate the maximum phenylephrine induced change in MAP. Additionally, MAP values were recorded at one minute intervals and curve fitted to estimate a maximum MAP value. The curve fitted maximum value was used to confirm the visual maximum value.
A test compound was administered via the cephalic vein using an appropriately sized IV catheter (Surflo, Terumo Medical Corporation or equivalent).
Prior to test compound administration, IUP and MAP responses to an individualized dose of phenylephrine (either 10 or 15 μg/kg IV, depending on the individual animal's response) was repeated 2 to 3 times to establish a baseline response. After test compound administration, the individualized phenylephrine dose was administered to each animal at 30 minute intervals over a period of 5 hours.
Data for phenylephrine-induced changes in IUP and MAP were tabulated for each treatment group and each experiment. A mean value and standard deviation for the phenylephrine-induced changes to the effect of a test compound on IUP and MAP at each dose was calculated and tabulated for each treatment group over the length of the 5.5 hour study.

COc1ccc(S(=O)(=O)N[C@H]2CC[C@@H](N3CCN(c4ccccc4OCC(F)(F)F)CC3)CC2)cc1OC [Cpd 69, 3,4-Dimethoxy-N-cis-(4-{4-[2-(2,2,2-trifluoro-ethoxy)-phenyl]-piperazin-1-yl}-cyclohexyl)-benzenesulfonamide]
MAP, normalized % of baseline (mean) (0.01 mg/kg i.v., 0 hrs (baseline)): 100% | MAP, normalized % of baseline (mean) (0.01 mg/kg i.v., 0.5 hrs after dose): 88.2% | MAP, normalized % of baseline (mean) (0.01 mg/kg i.v., 1 hrs after dose): 68.9% | MAP, normalized % of baseline (mean) (0.01 mg/kg i.v., 2 hrs after dose): 83.1% | MAP, normalized % of baseline (mean) (0.01 mg/kg i.v., 3 hrs after dose): 88.0% | MAP, normalized % of baseline (mean) (0.01 mg/kg i.v., 4 hrs after dose): 82.0% | MAP, normalized % of baseline (mean) (0.01 mg/kg i.v., 5 hrs after dose): 91.1% | MAP, normalized % of baseline (mean) (0.03 mg/kg i.v., 0 hrs (baseline)): 100% | MAP, normalized % of baseline (mean) (0.03 mg/kg i.v., 0.5 hrs after dose): 39.9% | MAP, normalized % of baseline (mean) (0.03 mg/kg i.v., 1 hrs after dose): 40.9% | MAP, normalized % of baseline (mean) (0.03 mg/kg i.v., 1.5 hrs after dose): 44.1% | MAP, normalized % of baseline (mean) (0.03 mg/kg i.v., 2 hrs after dose): 61.0% | MAP, normalized % of baseline (mean) (0.03 mg/kg i.v., 2.5 hrs after dose): 59.4% | MAP, normalized % of baseline (mean) (0.03 mg/kg i.v., 3 hrs after dose): 59.2% | MAP, normalized % of baseline (mean) (0.03 mg/kg i.v., 3.5 hrs after dose): 59.8% | MAP, normalized % of baseline (mean) (0.03 mg/kg i.v., 4 hrs after dose): 58.4% | MAP, normalized % of baseline (mean) (0.03 mg/kg i.v., 4.5 hrs after dose): 71.1% | MAP, normalized % of baseline (mean) (0.03 mg/kg i.v., 5 hrs after dose): 90.3% | MAP, normalized % of baseline (mean) (0.1 mg/kg i.v., 0 hrs (baseline)): 100% | MAP, normalized % of baseline (mean) (0.1 mg/kg i.v., 0.5 hrs after dose): 45.5% | MAP, normalized % of baseline (mean) (0.1 mg/kg i.v., 1 hrs after dose): 47.4% | MAP, normalized % of baseline (mean) (0.1 mg/kg i.v., 1.5 hrs after dose): 35.0% | MAP, normalized % of baseline (mean) (0.1 mg/kg i.v., 2 hrs after dose): 44.0% | MAP, normalized % of baseline (mean) (0.1 mg/kg i.v., 2.5 hrs after dose): 54.0% | MAP, normalized % of baseline (mean) (0.1 mg/kg i.v., 3 hrs after dose): 51.3% | MAP, normalized % of baseline (mean) (0.1 mg/kg i.v., 3.5 hrs after dose): 56.4% | MAP, normalized % of baseline (mean) (0.1 mg/kg i.v., 4 hrs after dose): 47.0% | MAP, normalized % of baseline (mean) (0.1 mg/kg i.v., 4.5 hrs after dose): 73.3% | MAP, normalized % of baseline (mean) (0.1 mg/kg i.v., 5 hrs after dose): 84.3% | MAP, normalized % of baseline (mean) (0.5 mg/kg i.v., 0 hrs (baseline)): 100% | MAP, normalized % of baseline (mean) (0.5 mg/kg i.v., 0.5 hrs after dose): 27.6% | MAP, normalized % of baseline (mean) (0.5 mg/kg i.v., 1 hrs after dose): 18.4% | MAP, normalized % of baseline (mean) (0.5 mg/kg i.v., 1.5 hrs after dose): 16.0% | MAP, normalized % of baseline (mean) (0.5 mg/kg i.v., 2 hrs after dose): 18.3% | MAP, normalized % of baseline (mean) (0.5 mg/kg i.v., 2.5 hrs after dose): 19.4% | MAP, normalized % of baseline (mean) (0.5 mg/kg i.v., 3 hrs after dose): 23.8% | MAP, normalized % of baseline (mean) (0.5 mg/kg i.v., 3.5 hrs after dose): 19.2% | MAP, normalized % of baseline (mean) (0.5 mg/kg i.v., 4 hrs after dose): 32.3% | MAP, normalized % of baseline (mean) (0.5 mg/kg i.v., 4.5 hrs after dose): 32.1% | MAP, normalized % of baseline (mean) (0.5 mg/kg i.v., 5 hrs after dose): 29.4%
